The target in test [1] is T1, human CRTH2 (Homo sapiens, UniProt Q9Y5Y4, V204A).
T1 sequence (Q9Y5Y4 1-395 V204A): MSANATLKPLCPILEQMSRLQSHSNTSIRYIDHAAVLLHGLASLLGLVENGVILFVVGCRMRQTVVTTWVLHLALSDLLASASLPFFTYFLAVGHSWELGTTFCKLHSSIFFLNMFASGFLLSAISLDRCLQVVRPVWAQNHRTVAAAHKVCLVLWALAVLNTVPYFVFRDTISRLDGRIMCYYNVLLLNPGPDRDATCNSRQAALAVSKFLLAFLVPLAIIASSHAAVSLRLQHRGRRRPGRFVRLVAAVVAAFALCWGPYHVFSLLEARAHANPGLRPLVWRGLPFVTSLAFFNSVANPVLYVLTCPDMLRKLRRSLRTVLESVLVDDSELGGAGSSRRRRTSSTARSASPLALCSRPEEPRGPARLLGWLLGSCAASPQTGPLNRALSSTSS
Kind of test: Functional antagonist BRET assay on HEK293 cells stably expressing human CRTH2-Rluc and GFP2-β-arr2. The test is classed as cell-based. Also noted: expressed in transfected cells. The settings on record: read-out: Antag. IC50. The text has this: (§1) Generation/origin of the cDNA Constructs. The coding sequence of the human CRTH2 receptor (genbank accession no NM_004778) was amplified by PCR from a human hippocampus cDNA library and inserted into the pcDNA3.1(+) expression vector (invitrogen) via 5′ HindIII and 3′ EcoRI. To generate a CRTH2-Renilla luciferase (CRTH2-Rluc) fusion protein, the CRTH2 coding sequence without a STOP codon and Rluc were amplified, fused in frame by PCR and subcloned into the pcDNA3.1(+)Zeo expression vector (invitrogen). Human β-arrestin2 (β-arr2) N-terminally tagged with GFP^2 (βarr2-GFP^2) and Renilla luciferase were purchased from BioSignal Packard Inc, (Montreal, Canada). The sequence identity of the construct was verified by restriction endonuclease digests and sequencing in both directions on an ABI Prism (Applied Biosystems, Foster City, Calif.).
(§2) Cell Culture and Transfection. COS-7 cells were grown in Dulbecco's modified Eagle's medium (DMEM) 1885 supplemented with 10% fetal bovine serum, 100 units/ml penicillin, […] streptomycin, and kept at 37° C. in a 10% CO2 atmosphere. HEK293 cells were maintained in Minimum Essential medium (MEM) supplemented with 10% (v/v) heat inactivated fetal calf serum (HIFCS), 2 mM Glutamax™-I, 1% non essential amino acids (NEAA), 1% sodium pyruvate and 10 μg/ml gentamicin. For binding experiments, COS7 cells were transiently transfected with the CRTH2 receptor using a calcium phosphate-DNA coprecipitation method with the addition of chloroquine (as described by Holst et al., 2001↓). To perform the functional Bioluminescence Resonance Energy Transfer (BRET) assays, a HEK293 cell clone stably expressing βarr2-GFP^2 and CRTH2-Rluc was generated (CRTH2-HEK293 cells).
BRET assay. Functional BRET assays were performed on HEK293 cells stably expressing human CRTH2-Rluc and GFP^2-β-arr2. Prior to their use in the BRET assay cells were detached and re-suspended in D-PBS with 1000 mg/L L-Glucose at a density of 2×10^6 cells/mL. DeepBlueC™ was diluted to 50 μM in D-PBS with 1000 mg/L L-Glucose (light sensitive). 100 μL of cell suspension was transferred to wells in a 96-well microplate (white OptiPlate) and placed in the Mithras LB 940 instrument (BERTHOLD TECHNOLOGIES, Bad Wildbad, Germany). 12 μL/well agonist was then injected by injector 1 and 10 μL/well DeepBlueC™ was injected simultaneously by injector 2. Five seconds after the injections the light output from the well was measured sequentially at 400 nm and 515 nm, and the BRET signal (mBRET ratio) was calculated by the ratio of the fluorescence emitted by GFP^2-β-arr2 (515 nm) over the light emitted by the receptor-Rluc (400 nm). Antagonists were added before placing the microplates into the Mithras LB 940 and allowed to incubate for 15 minutes prior to the addition of agonist and DeepBlueC™. Compounds were dissolved in DMSO and the final DMSO concentration was kept constant at 1% in the assay.
(§3) Curve analysis was performed with the GraphPadPrism software 3.0 (Graphpad Prism Inc., San Diego, USA) and IC50 values were calculated as a measure of the antagonistic potencies.
In general terms: BRET reads energy transfer from a luciferase to a nearby fluorophore.

Test [2] deals with T1, human CRTH2. Kind of test: Receptor binding assay: [3H]PGD2 competition binding on whole COS-7 cells transiently transfected with CRTH2 (also stable HEK293 cells). Also noted: expressed in transfected cells; host or cells: COS-7 (transient, calcium phosphate).
Text: as §1, §2
Binding assay. 24 h after transfection COS-7 cells were seeded into 96 well plates at a density of 30.000 cells/well. Competition binding experiments on whole cells were then performed about 18-24 h later using 0.1 nM [^3H]PGD2 (NEN, 172 Ci/mmol) in a binding buffer consisting of HBSS (GIBCO) and 10 mM HEPES. Competing ligands were diluted in DMSO which was kept constant at 1% (v/v) of the final incubation volume. Total and nonspecific binding were determined in the absence and presence of 10 μM PGD2. Binding reactions were routinely conducted for 3 h at 4° C. and terminated by 2 washes (100 μl each) with ice cold binding buffer. Radioactivity was determined by liquid scintillation counting in a TOPCOUNTER (Packard) following over night incubation in Microscint 20. Stable HEK293 cells were seeded at a density of 30.000 cells/well 18-24 h prior to the binding assay which was performed essentially as described for COS7 cells above. Determinations were made in duplicates.
as §3

Setting [3] is: BRET, antagonist incubated 15 minutes prior to agonist.
Setting [4] is: competition with 0.1 nM [3H]PGD2, whole cells, 3 h at 4° C.
Where [5] appears, read: functional antagonist assay, Table 3.
Setting [6] is: receptor binding assay, Table 3.

This note sets out measurements from patent US20110269763A1, “CRTH2 receptor ligands for medicinal uses” (7TM Pharma A/S, priority 2004, published 2011).

The term IC50 denotes the concentration at which inhibition is half-maximal.

For `COc1ccc(-n2cc(C(=O)c3cc(Br)ccc3OCC(=O)O)cn2)cc1` [D7, 4-Bromo-2-[1-(4-methoxyphenyl)-1H-pyrazole-4-carbonyl]phenoxyacetic acid], the IC50 at human CRTH2 [1] (setting [3]) and at human CRTH2 [2] (setting [4]) was less than 500 nM in each case.

On to `CCc1cc(Br)ccc1-n1cc(C(=O)c2cc(Br)ccc2OCC(=O)O)cn1` [D42, {4-Bromo-2-[1-(4-bromo-2-ethylphenyl)-1H-pyrazole-4-carbonyl]phenoxy}acetic acid], for which the IC50 at human CRTH2 [1] (setting [3]) and at human CRTH2 [2] (setting [4]) was less than 500 nM throughout.

With `O=C(O)COc1ccc(Cl)cc1C(=O)c1cnn(-c2ccccc2)c1` [D10, [4-Chloro-2-(1-phenyl-1H-pyrazole-4-carbonyl)phenoxy]acetic acid], the IC50 at human CRTH2 [1] (setting [3]) is 500 to 5000 nM; on human CRTH2 [2] (setting [4]), less than 500 nM.

As to `Cc1cccc(C)c1-n1cc(C(=O)c2cc(Br)ccc2OC(C)C(=O)O)cn1` (stereo not drawn) [D77, 2-{4-Bromo-2-[1-(2,6-dimethylphenyl)-1H-pyrazole-4-carbonyl]phenoxy}propionic acid], the IC50 at human CRTH2 [1] (setting [3]) and on human CRTH2 [2] (setting [4]) was less than 500 nM throughout.

Take `COc1ccc(-c2cnnc(NN=Cc3ccccc3OCC(=O)O)n2)cc1` [D153]: the IC50 on human CRTH2 [1] (setting [3]) is greater than 5000 nM; at human CRTH2 [2] (setting [4]) it was 500 to 5000 nM.

Regarding `O=C(O)COc1ccc(-c2ccccc2)cc1C(=O)c1cnn(-c2ccccc2)c1` [D5, 3-(1-Phenyl-1H-pyrazole-4-carbonyl)biphenyl-4-yloxyacetic acid], the IC50 on human CRTH2 [1] (setting [3]) and on human CRTH2 [2] (setting [4]) was less than 500 nM throughout.

On to `CC(C)c1ccccc1-n1cc(C(=O)c2cc(Br)ccc2OCC(=O)O)cn1` [D73, {4-Bromo-2-[1-(2-isopropylphenyl)-1H-pyrazole-4-carbonyl]phenoxy}acetic acid], for which the IC50 on human CRTH2 [1] (setting [3]) and on human CRTH2 [2] (setting [4]) was less than 500 nM each time.

As for `Cc1cccc(C)c1-n1cc(C(=O)c2cc(Br)ccc2OCC(=O)O)cn1` [D71, {4-Bromo-2-[1-(2,6-dimethylphenyl)-1H-pyrazole-4-carbonyl]phenoxy}acetic acid], the half-inhibitory concentration (IC50) at human CRTH2 [1] (setting [3]) and on human CRTH2 [2] (setting [4]) was less than 500 nM throughout.

Consider `O=C(O)COc1ccc(Br)cc1C(=O)c1cnn(-c2ccccc2C(F)(F)F)c1` [D23, 4-Bromo-2-[1-(2-trifluoromethylphenyl)-1H-pyrazole-4-carbonyl]phenoxyacetic acid], for which the IC50 at human CRTH2 [1] (setting [3]) and on human CRTH2 [2] (setting [4]) was less than 500 nM each time.

On to `COc1ccc(Cc2noc(-c3cc(Br)ccc3OCC(=O)O)n2)cc1OC` [D124, {4-Bromo-2-[3-(3,4-dimethoxybenzyl)-[1,2,4]oxadiazol-5-yl]phenoxy}-acetic acid], for which the IC50 at human CRTH2 [1] (setting [5]) and at human CRTH2 [2] (setting [6]) was less than 500 nM each time.

Take `COc1ccccc1Cc1noc(-c2cc(Br)ccc2OCC(=O)O)n1` [D119, {4-Bromo-2-[3-(2-methoxy-benzyl)-[1,2,4]oxadiazol-5-yl]-phenoxy}-acetic acid]: the IC50 on human CRTH2 [1] (setting [5]) and at human CRTH2 [2] (setting [6]) was less than 500 nM in each case.

Regarding `O=C(O)COc1ccc(Br)cc1C(=O)c1cnn(-c2ccccc2Br)c1` [D21, 4-Bromo-2-[1-(2-bromophenyl)-1H-pyrazole-4-carbonyl]phenoxyacetic acid], the IC50 on human CRTH2 [1] (setting [3]) and at human CRTH2 [2] (setting [4]) was less than 500 nM in each case.

With `O=C(O)COc1ccc(Br)cc1-c1nc(-c2cccc(Cl)c2)no1` [D105, {4-Bromo-2-[3-(3-chlorophenyl)-[1,2,4]oxadiazol-5-yl]phenoxy}acetic acid], the IC50 on human CRTH2 [1] (setting [5]) and on human CRTH2 [2] (setting [6]) was less than 500 nM each time.

For the compound `O=C(O)COc1ccc(Br)cc1-c1coc(-c2ccccc2)n1` [D83, [4-Bromo-2-(2-phenyloxazol-4-yl)phenoxy]acetic acid], the IC50 at human CRTH2 [1] (setting [3]) was greater than 5000 nM; on human CRTH2 [2] (setting [4]), less than 500 nM.

Turning to `CSc1ccccc1-n1cc(C(=O)c2cc(Br)ccc2OCC(=O)O)cn1` [D44, {4-Bromo-2-[1-(2-methylthiophenyl)-1H-pyrazole-4-carbonyl]phenoxy}acetic acid], the IC50 on human CRTH2 [1] (setting [3]) and on human CRTH2 [2] (setting [4]) was less than 500 nM throughout.

As for `O=C(O)COc1ccc(Br)cc1C(=O)c1cnn(-c2ccc(Br)cc2Cl)c1` [D34, 4-Bromo-2-[1-(4-bromo-2-chlorophenyl)-1H-pyrazole-4-carbonyl]phenoxyacetic acid], the IC50 at human CRTH2 [1] (setting [3]) and on human CRTH2 [2] (setting [4]) was less than 500 nM throughout.

Consider `O=C(O)COc1ccc(F)cc1C(=O)c1cnn(-c2ccccc2)c1` [D3, 4-Fluoro-2-(1-phenyl-1H-pyrazole-4-carbonyl)phenoxyacetic acid], for which the IC50 was 500 to 5000 nM on human CRTH2 [1] (setting [3]) and less than 500 nM at human CRTH2 [2] (setting [4]).

With `O=C(O)COc1ccc(Br)cc1CN1CC(=O)N(CCc2ccccc2)C1=O` [D140, 4-Bromo-2-(2,4-dioxo-3-phenethylimidazolidin-1-ylmethyl)phenoxyacetic acid], the IC50 was 500 to 5000 nM at human CRTH2 [1] (setting [3]) and less than 500 nM at human CRTH2 [2] (setting [4]).

Turning to `O=C(O)COc1ccc(Br)cc1-c1nc(-c2ccc(OC(F)(F)F)cc2)no1` [D103, {4-Bromo-2-[3-(4-trifluoromethoxyphenyl)-[1,2,4]oxadiazol-5-yl]phenoxy}acetic acid], the concentration for half-maximal inhibition (IC50) at human CRTH2 [1] (setting [5]) and at human CRTH2 [2] (setting [6]) was less than 500 nM in each case.

For `COc1ccc(-c2noc(-c3cc(Br)ccc3OCC(=O)O)n2)cc1` [D101, {4-Bromo-2-[3-(4-methoxy-phenyl)-[1,2,4]oxadiazol-5-yl]phenoxy}acetic acid], the IC50 at human CRTH2 [1] (setting [5]) and on human CRTH2 [2] (setting [6]) was less than 500 nM throughout.

Turning to `O=C(O)COc1ccc(Br)cc1-c1nc(Cc2cc(F)cc(F)c2)no1` [D117, {4-Bromo-2-[3-(3,5-difluoro-benzyl)-[1,2,4]oxadiazol-5-yl]-phenoxy}-acetic acid], the IC50 at human CRTH2 [1] (setting [5]) and at human CRTH2 [2] (setting [6]) was less than 500 nM throughout.

Take `CC(Oc1ccc(Br)cc1C(=O)c1cnn(-c2ccccc2)c1)C(=O)O` (racemic) [D37, 2-[4-Bromo-2-(1-phenyl-1H-pyrazole-4-carbonyl)phenoxy]propionic acid]: the IC50 at human CRTH2 [1] (setting [3]) and at human CRTH2 [2] (setting [4]) was less than 500 nM each time.

Turning to `O=C(O)COc1ccc(Br)cc1CC1SC(=O)N(Cc2ccc(Cl)cc2)C1=O` (stereo not drawn) [D141, 4-Bromo-2-[3-(4-chlorobenzyl)-2,4-dioxothiazolidin-5-ylmethyl]phenoxyacetic acid], the IC50 on human CRTH2 [1] (setting [3]) and on human CRTH2 [2] (setting [4]) was less than 500 nM in each case.

As for `O=C(O)COc1ccc(Br)cc1-c1nc(Cc2ccc(Cl)cc2)no1` [D114, {4-Bromo-2-[3-(4-chloro-benzyl)-[1,2,4]oxadiazol-5-yl]-phenoxy}-acetic acid], the IC50 at human CRTH2 [1] (setting [5]) and at human CRTH2 [2] (setting [6]) was less than 500 nM throughout.
